Data set [1] has as its system U-251. Kind of data set: Antiproliferative activity against human U-251 cells assessed as inhibition of cell proliferation measured after 72 hrs by CCK8 assay. Format: functional, cell-based. Conditions: U-251, 72 h.
A further data set relates to C6. Kind of data set: Antiproliferative activity against rat C6 cells assessed as inhibition of cell proliferation measured after 72 hrs by CCK8 assay. Format: functional, cell-based. Conditions: C6, 72 h. (In general: Tetrazolium dyes change colour on reduction, which living cells bring about.)
Data set [2] has as its system U-251. Kind of data set: Antiproliferative activity against human U-251 cells assessed as release of LDH in supernatant and measured after 72 hrs by microplate reader assay. The data set is classed as functional, cell-based. Conditions: DDE = dose-dependent effect.
The subject of data set [3] is U-87MG ATCC. Kind of data set: Induction of apoptosis in human U-87 MG cells assessed as formation of spindle shaped cells at 0.075 to 1.20 uM measured after 72 hrs by Giemsa staining based microscopic analysis. Conditions: dose 0.075-1.2 µM. The data set is classed as functional, cell-based.
Data set [4] can be described thus: Induction of apoptosis in human U-87 MG cells assessed as early apoptotic cells at 1.20 uM incubated for 72 hrs by Annexin V-FITC/PI staining based flow cytometry method (reference value: 2.53 %). The data set is classed as functional, U-87MG ATCC. Conditions: dose 1.2 µM.
Data set [5] is described as follows: Induction of apoptosis in human U-87 MG cells assessed as late apoptotic cells at 1.20 uM incubated for 72 hrs by Annexin V-FITC/PI staining based flow cytometry method (reference value: 0.42 %). The data set is classed as functional, U-87MG ATCC. Conditions: dose 1.2 µM.
The test system of data set [6] is U-251. Kind of data set: Induction of apoptosis in human U-251 cells assessed as viable cells at 6 uM incubated for 72 hrs by Annexin V-FITC/PI staining based flow cytometry method (reference value: 96.22 %). Format: functional. Conditions: read-out: Activity. For orientation: Flow cytometry measures light scatter and fluorescence of single cells or particles in a stream.

The test system of data set [7] is U-251. Kind of data set: Induction of apoptosis in human U-251 cells assessed as early apoptotic cells at 6 uM incubated for 72 hrs by Annexin V-FITC/PI staining based flow cytometry method (Rvb =1.96 %). The data set is classed as functional.
The test system of data set [8] is U-251. Kind of data set: Induction of apoptosis in human U-251 cells assessed as necrotic cells at 6 uM incubated for 72 hrs by Annexin V-FITC/PI staining based flow cytometry method (Rvb =0.51 %). The data set is classed as functional.
The subject of data set [9] is U-251. Kind of data set: Induction of apoptosis in human U-251 cells assessed as late apoptotic cells at 0.375 uM incubated for 72 hrs by Annexin V-FITC/PI staining based flow cytometry method (Rvb =1.31 %). Format: functional.
Data set [10] concerns U-251. Kind of data set: Induction of apoptosis in human U-251 cells assessed as early apoptotic cells at 1.50 uM incubated for 72 hrs by Annexin V-FITC/PI staining based flow cytometry method (Rvb =1.96 %). The data set is classed as functional. Conditions: dose 1.5 µM.
Data set [11] concerns U-251. Kind of data set: Induction of apoptosis in human U-251 cells assessed as late apoptotic cells at 1.50 uM incubated for 72 hrs by Annexin V-FITC/PI staining based flow cytometry method (Rvb =1.31 %). The data set is classed as functional. Conditions: dose 1.5 µM.
In data set [12] the test system is U-251. Kind of data set: Induction of apoptosis in human U-251 cells assessed as necrotic cells at 1.50 uM incubated for 72 hrs by Annexin V-FITC/PI staining based flow cytometry method (Rvb =0.51 %). The data set is classed as functional. Conditions: dose 1.5 µM.
The subject of data set [13] is U-87MG ATCC. Kind of data set: Induction of cell cycle arrest in human U-87 MG cells assessed as decrease in accumulation at S phase at 0.075 to 1.20 uM measured after 72 hrs by flow cytometry. Format: functional, cell-based. Conditions: dose 0.075-1.2 µM, DDE = dose-dependent effect.
The subject of data set [14] is U-87MG ATCC. Kind of data set: Induction of cell cycle arrest in human U-87 MG cells assessed as decrease in accumulation at G2/M phase at 0.075 to 1.20 uM measured after 72 hrs by flow cytometry. The data set is classed as functional, cell-based. Conditions: dose 0.075-1.2 µM, DDE = dose-dependent effect.
Data set [15] is described as follows: Tmax in Sprague-Dawley rat plasma at 100 mg/kg, ip and measured upto 240 mins by LC-MS analysis. The data set is classed as ADME, organism-based.
Data set [16] in a line: Ratio of drug level in Sprague-Dawley rat brain to plasma at 100 mg/kg, ip measured after 240 mins by LC-MS analysis. Conditions: read-out: logBB (converted). Format: ADME, organism-based.
The nature of data set [17]: Acute toxicity in Kunming mouse assessed as pathological changes in spleen at 600 mg/kg, ip measured after 24 hrs by H and E staining analysis. Format: organism-based. Conditions: in vivo.
Data set [18] concerns U-251. Kind of data set: Downregulation of cyclin D1 gene expression in human U-251 cells at 0.075 to 1.2 uM measured after 72 hrs by western blot analysis. Format: functional, cell-based. Conditions: dose 0.075-1.2 µM.
Data set [19] deals with U-87MG ATCC. Kind of data set: Downregulation of CDK6 gene expression in human U-87 MG cells at 0.075 to 1.2 uM measured after 72 hrs by western blot analysis. Format: functional, cell-based. Conditions: dose 0.075-1.2 µM. (In general: A western blot detects proteins with antibodies after separation by electrophoresis.)

SMILES strings stand for the structures. Activity calls are given as the source filed them. No cut-off for these calls is given here.

By IC50 is commonly meant the point on the concentration scale where inhibition reaches its midpoint. The term Tmax denotes the time from dosing to the highest level. In the case of `COCCN1CCN(c2ccc(F)cc2C(=O)Nc2ccc(CNC(=O)OCc3cccnc3)cc2)CC1`, the values for the IC50 in the data set with U-251 [1] and in the data set on C6 were 1.28 µM and 0.15 µM, respectively. Moreover, the Activity entry with U-251 [2] is “Dde”; in data set [4] it was 17.92%; in data set [5], 9.97%; with U-251 [7], 4.81%; with U-251 [8], 2.63%; in the data set with U-251 [9], 1.61%. Also, the Activity in the data set with U-251 [10] was 2.9%; in the data set with U-251 [11] it was 2.47%; in the data set on U-251 [12], 0.94%; in the data set on U-87MG ATCC [13], “Dde”; in the data set on U-87MG ATCC [14], “Dde”; in data set [17] it was “Non-Toxic”. The outcome in the data set on U-87MG ATCC [3], in the data set with U-251 [18] and in the data set with U-87MG ATCC [19] was Active. In addition, the viability at 6 µM in the data set with U-251 [6] stood at 86.8%. The Tmax in [15] was 30 min. Moreover, the Kp at 4 h in data set [16] is 1.07.

Values taken from ChEMBL document CHEMBL5131385, “Novel piperazine based benzamide derivatives as potential anti-glioblastoma agents inhibiting cell proliferation and cell cycle progression” (Eur J Med Chem, 2022).
